Experimental findings from patent US9758503B1, “Coumarin-gossypol derivatives with antitumor activities and a method of preparing the same” (SHAANXI UNIVERSITY OF SCIENCE AND TECHNOLOGY, priority 2017, dated 2017) are described below.

Experiment [1] has as its system human hepatoma cells (HepG2). Kind of experiment: MTT tumor cell proliferation inhibition test, HepG2. Format: cell-based. Particulars: read-out: Half Inhibitory Concentration IC50 HepG2. The method, then: (§1) The compounds of the present invention were subjected to tumor cell proliferation inhibition test, and conventional MTT method was used.
(§2) Cell lines: human hepatoma cells (HepG2), human lung cancer cells (A-549), human gastric cancer cells (SGC-7901). The culture medium was DMEM+15% NBS+double antibody.
(§3) Sample solution preparation: after dissolving with DMSO (Merck), PBS (−) was added to obtain 100 μmol/L solution or homogeneous suspension. The solution was diluted with PBS (−) in DMSO to a final concentration of 0.1, 1, 10, 20, 40, 60, 80, 100 μmol/L.
(§4) Gossypol was used as control solution, prepared under the same condition.
(§5) Cell culture: adherent growth Tumor cells were cultured in 1640 medium containing 10% inactivated neonatal bovine serum and penicillin, streptomycin (1 million U/L), placed in carbon dioxide incubator at 37° C., 5% CO2, and saturated humidity. Cells were treated serially passaged 2-3 times. The first culture was washed with PBS 2 times, and digested with trypsin. Fresh culture medium was added evenly, cells were adjusted to a appropriate concentration and transferred into a new culture flask. Cell in an exponential phase were chosen for the tests.
(§6) MTT Assay for Cell Viability and IC50 Determination:
(§7) Experimental Principle: Living cells mitochondria in the dehydrogenase can reduce yellow MTT to water-insoluble blue-violet product MT (MTT formazan), deposited in the cells. The amount of production is proportional to the number of living cells. […] DMSO can dissolve blue violet crystals, and the color depth is proportional to the amount contained, so the absorbance measured by the microplate reader can reflect the cell viability.
(§8) Methods: The exponential phase cells were digested and counted and seeded in 96-well plates at a density of 2×10^4/mL at 100 μl per well. After 24 hours of incubation, the cells to be tested were treated with 0.1, 1, 10, 20, 40, 60, 80, 100 μmol/L of the compounds. Each experimental group had 5 wells in each concentration, and the culture medium containing 0.4% DMSO was used as control. After 48 hours, the supernatant was discarded, and 100 μl of MTT ((2-(4,5-dimethyl-2-thiazolyl)-3,5-diphenyl-2H-[…]) (1 mg/mL) was added to each well. After another 4 hours, the supernatant was discarded, and 100 μl of DMSO was added to each well. After mixing, the absorbance was measured at 570 nm using a microplate reader. An IC50 calculation software was used to determine the half inhibitory concentration (IC50).

In experiment [2] the test system is human lung cancer cells (A-549). Kind of experiment: MTT tumor cell proliferation inhibition test, A-549. Format: cell-based. Particulars: read-out: Half Inhibitory Concentration IC50 A549. As to the method: as §1, §2, §3, §4, §5, §6, §7, §8
In experiment [3] the test system is human gastric cancer cells (SGC-7901). Put plainly: MTT tumor cell proliferation inhibition test, SGC-7901. The format is cell-based. Particulars: read-out: Half Inhibitory Concentration IC50 SGC-7901. The method, then:
as §1, §2, §3, §4, §5, §6, §7, §8

Experiment [4] relates to three cell lines tested (HepG2, A-549, SGC-7901). Put plainly: MTT tumor cell proliferation inhibition test, summary over the three cell lines. The format is cell-based, human. As to the method: as §1, §2, §3, §4
Cell culture: adherent growth Tumor cells were cultured in 1640 medium containing 10% inactivated neonatal bovine serum and penicillin, streptomycin (1 million U/L), placed in carbon dioxide incubator at 37° C., 5% CO2, and saturated humidity. Cells were treated serially passaged 2-3 times. The first culture was washed with PBS 2 times, and digested with trypsin. Fresh culture medium was added evenly, cells were adjusted to a appropriate concentration and transferred into a new culture flask. […]
Experimental Principle: Living cells mitochondria in the dehydrogenase can reduce yellow MTT to water-insoluble blue-violet product MT (MTT formazan), deposited in the cells. […] DMSO can dissolve blue violet crystals, and the color depth is proportional to the amount contained, so the absorbance measured by the microplate reader can reflect the cell viability.
Methods: The exponential phase cells were digested and counted and seeded in 96-well plates at a density of 2×10^4/mL at 100 μl per well. […] After 48 hours, the supernatant was discarded, and 100 μl of MTT ((2-(4,5-dimethyl-2-thiazolyl)-3,5-diphenyl-2H-[…]) (1 mg/mL) was added to each well. After another 4 hours, the supernatant was discarded, and 100 μl of DMSO was added to each well. After mixing, the absorbance was measured at 570 nm using a microplate reader. An IC50 calculation software was used to determine the half inhibitory concentration (IC50).

[5] abbreviates: HepG2 cells, MTT, 48 hours treatment.
Setting [6] is: A549 cells, MTT, 48 hours treatment.
The mark [7] stands for this setting: SGC-7901 cells, MTT, 48 hours treatment.

Where two headings read alike, the source gives them in different places.

For the compound `Cc1cc2c(c(O)c1-c1c(C)cc3c(C(C)C)c(O)c(O)c(C=O)c3c1O)/C(=C/c1c(O)c3ccccc3oc1=O)C(=O)C(O)=C2C(C)C` [Compound A-1, (Z)-1,1′,6,6′,7-pentahydroxy-8′-((4-hydroxy-2-oxo-2H-chromen-3-yl)methylene)-5,5′-diisopropyl-3,3′-dimethyl-7′-oxo-7′,8′-dihydro-[2,2′-binaphthalene]-8-carbaldehyde], the IC50 in experiment [1] (setting [5]) worked out at 10.7 ± 0.65 µM; in experiment [2] (setting [6]) it was 17.1 ± 0.72 µM; in experiment [3] (setting [7]), 21.3 ± 1.34 µM. Further, in experiment [4], the “antitumor activities (verbal summary)” value was “best antitumor activities”.

Consider `Cc1cc2c(c(O)c1-c1c(C)cc3c(C(C)C)c(O)c(O)c(C=O)c3c1O)/C(=C/c1c(O)c3cc(Cl)ccc3oc1=O)C(=O)C(O)=C2C(C)C` [Compound A-2, (Z)-8′-((6-chloro-4-hydroxy-2-oxo-2H-chromen-3-yl)methylene)-1,1′,6,6′,7-pentahydroxy-5,5′-diisopropyl-3,3′-dimethyl-7′-oxo-7′,8′-dihydro-[2,2′-binaphthalene]-8-carbaldehyde], for which the IC50 in experiment [1] (setting [5]), in experiment [2] (setting [6]) and in experiment [3] (setting [7]) was over 100 µM throughout.

Turning to `Cc1cc2c(c(O)c1-c1c(C)cc3c(C(C)C)c(O)c(O)c(C=O)c3c1O)/C(=C/c1c(O)c3ccc(O)cc3oc1=O)C(=O)C(O)=C2C(C)C` [Compound A-3, (Z)-8′-((4,7-dihydroxy-2-oxo-2H-chromen-3-yl)methylene)-1,1′,6,6′,7-pentahydroxy-5,5′-diisopropyl-3,3′-dimethyl-7′-oxo-7′,8′-dihydro-[2,2′-binaphthalene]-8-carbaldehyde], the values for the IC50 in experiment [1] (setting [5]), in experiment [2] (setting [6]) and in experiment [3] (setting [7]) were 17.8 ± 0.95 µM, 26.7 ± 1.12 µM and 30.7 ± 1.31 µM, respectively. In experiment [4], the “antitumor activities (verbal summary)” value is “good antitumor activities”.

For the compound `COc1cccc2c(O)c(/C=C3\C(=O)C(O)=C(C(C)C)c4cc(C)c(-c5c(C)cc6c(C(C)C)c(O)c(O)c(C=O)c6c5O)c(O)c43)c(=O)oc12` [Compound A-4, (Z)-1,1′,6,6′,7-pentahydroxy-8′-((4-hydroxy-8-methoxy-2-oxo-2H-chromen-3-yl)methylene)-5,5′-diisopropyl-3,3′-dimethyl-7′-oxo-7′,8′-dihydro-[2,2′-binaphthalene]-8-carbaldehyde], the results for the IC50 in experiment [1] (setting [5]), in experiment [2] (setting [6]) and in experiment [3] (setting [7]) were 26.5 ± 1.02 µM, 43.4 ± 1.21 µM and 31.2 ± 1.33 µM, respectively.

As to `Cc1cc2c(c(O)c1-c1c(C)cc3c(C(C)C)c(O)c(O)c(C=O)c3c1O)/C(=C/c1c(O)c3c(O)cc(O)cc3oc1=O)C(=O)C(O)=C2C(C)C` [Compound A-5, (Z)-1,1′,6,6′,7-pentahydroxy-5,5′-diisopropyl-3,3′-dimethyl-7′-oxo-8′-((4,5,7-trihydroxy-2-oxo-2H-chromen-3-yl)methylene)-7′,8′-dihydro-[2,2′-binaphthalene]-8-carbaldehyde], the IC50 in experiment [1] (setting [5]) is over 100 µM; in experiment [2] (setting [6]) it was over 100 µM; in experiment [3] (setting [7]), 88.8 ± 3.02 µM.

`Cc1cc(C)c2c(O)c(/C=C3\C(=O)C(O)=C(C(C)C)c4cc(C)c(-c5c(C)cc6c(C(C)C)c(O)c(O)c(C=O)c6c5O)c(O)c43)c(=O)oc2c1` [Compound A-6, (Z)-1,1′,6,6′,7-pentahydroxy-8′-((4-hydroxy-5,7-dimethyl-2-oxo-2H-chromen-3-yl)methylene)-5,5′-diisopropyl-3,3′-dimethyl-7′-oxo-7′,8′-dihydro-[2,2′-binaphthalene]-8-carbaldehyde]: the IC50 in experiment [1] (setting [5]) is 42.1 ± 1.04 µM; in experiment [2] (setting [6]) it was over 100 µM; in experiment [3] (setting [7]), 32.6 ± 1.81 µM.

Regarding `Cc1cc2c(c(O)c1-c1c(C)cc3c(c1O)/C(=C/c1c(O)c4ccccc4oc1=O)C(=O)C(O)=C3C(C)C)/C(=C/c1c(O)c3ccccc3oc1=O)C(=O)C(O)=C2C(C)C` [Compound B-1, (8Z,8′Z)-1,1′,6,6′-tetrahydroxy-8,8′-bis((4-hydroxy-2-oxo-2H-chromen-3-yl)methylene)-5,5′-diisopropyl-3,3′-dimethyl-[2,2′-binaphthalene]-7,7′(8H,8′H)-dione], the IC50 in experiment [1] (setting [5]) worked out at 15.2 ± 0.34 µM; in experiment [2] (setting [6]), 22.3 ± 0.9 µM; in experiment [3] (setting [7]) it was 26.9 ± 1.35 µM. Further, in experiment [4], the “antitumor activities (verbal summary)” value is “good antitumor activities”.

As for `Cc1cc2c(c(O)c1-c1c(C)cc3c(c1O)/C(=C/c1c(O)c4cc(Cl)ccc4oc1=O)C(=O)C(O)=C3C(C)C)/C(=C/c1c(O)c3cc(Cl)ccc3oc1=O)C(=O)C(O)=C2C(C)C` [Compound B-2, (8Z,8′Z)-8,8′-bis((6-chloro-4-hydroxy-2-oxo-2H-chromen-3-yl)methylene)-1,1′,6,6′-tetrahydroxy-5,5′-diisopropyl-3,3′-dimethyl-[2,2′-binaphthalene]-7,7′(8H,8′H)-dione], the IC50 in experiment [1] (setting [5]) is over 100 µM; in experiment [2] (setting [6]), 68.5 ± 2.44 µM; in experiment [3] (setting [7]), over 100 µM.

In the case of `Cc1cc2c(c(O)c1-c1c(C)cc3c(c1O)/C(=C/c1c(O)c4ccc(O)cc4oc1=O)C(=O)C(O)=C3C(C)C)/C(=C/c1c(O)c3ccc(O)cc3oc1=O)C(=O)C(O)=C2C(C)C` [Compound B-3, (8Z,8′Z)-8,8′-bis((4,7-dihydroxy-2-oxo-2H-chromen-3-yl)methylene)-1,1′,6,6′-tetrahydroxy-5,5′-diisopropyl-3,3′-dimethyl-[2,2′-binaphthalene]-7,7′(8H,8′H)-dione], the IC50 in experiment [1] (setting [5]) came out at 16.7 ± 0.45 µM; in experiment [2] (setting [6]), 28.6 ± 0.64 µM; in experiment [3] (setting [7]), 33.2 ± 1.01 µM.

`COc1cccc2c(O)c(/C=C3\C(=O)C(O)=C(C(C)C)c4cc(C)c(-c5c(C)cc6c(c5O)/C(=C/c5c(O)c7cccc(OC)c7oc5=O)C(=O)C(O)=C6C(C)C)c(O)c43)c(=O)oc12` [Compound B-4, (8Z,8′Z)-1,1′,6,6′-tetrahydroxy-8,8′-bis((4-hydroxy-8-methoxy-2-oxo-2H-chromen-3-yl)methylene)-5,5′-diisopropyl-3,3′-dimethyl-[2,2′-binaphthalene]-7,7′(8H,8′H)-dione]: the IC50 worked out at 22.4 ± 0.58 µM in experiment [1] (setting [5]), 38.4 ± 0.79 µM in experiment [2] (setting [6]) and 40 ± 1.43 µM in experiment [3] (setting [7]).

`Cc1cc2c(c(O)c1-c1c(C)cc3c(c1O)/C(=C/c1c(O)c4c(O)cc(O)cc4oc1=O)C(=O)C(O)=C3C(C)C)/C(=C/c1c(O)c3c(O)cc(O)cc3oc1=O)C(=O)C(O)=C2C(C)C` [Compound B-5, (8Z,8′Z)-1,1′,6,6′-tetrahydroxy-5,5′-diisopropyl-3,3′-dimethyl-8,8′-bis((4,5,7-trihydroxy-2-oxo-2H-chromen-3-yl)methylene)-[2,2′-binaphthalene]-7,7′(8H,8′H)-dione]: the IC50 in experiment [1] (setting [5]) is over 100 µM; in experiment [2] (setting [6]), over 100 µM; in experiment [3] (setting [7]) it was 54.3 ± 2.85 µM.

Regarding `Cc1cc(C)c2c(O)c(/C=C3\C(=O)C(O)=C(C(C)C)c4cc(C)c(-c5c(C)cc6c(c5O)/C(=C/c5c(O)c7c(C)cc(C)cc7oc5=O)C(=O)C(O)=C6C(C)C)c(O)c43)c(=O)oc2c1` [Compound B-6, (8Z,8′Z)-1,1′,6,6′-tetrahydroxy-8,8′-bis((4-hydroxy-5,7-dimethyl-2-oxo-2H-chromen-3-yl)methylene)-5,5′-diisopropyl-3,3′-dimethyl-[2,2′-binaphthalene]-7,7′(8H,8′H)-dione], the IC50 in experiment [1] (setting [5]) is 58.6 ± 3.23 µM; in experiment [2] (setting [6]), over 100 µM; in experiment [3] (setting [7]), over 100 µM.

Turning to `Cc1cc2c(C(C)C)c(O)c(O)c(C=O)c2c(O)c1-c1c(C)cc2c(C(C)C)c(O)c(O)c(C=O)c2c1O` [Gossypol], the IC50 in experiment [1] (HepG2, 48 h) came out at 18.4 ± 0.71 µM; in experiment [2] (A549, 48 h), 26.3 ± 1.89 µM; in experiment [3] (SGC-7901, 48 h), 43.6 ± 2.03 µM.
